Test results: patent US7996156B2, “Methods for predicting properties of molecules” (priority 2002, dated 2011)
Like-named read-outs stand apart in the source and are kept apart here.

Columns and labels:
[1] = biological target: T1, aryl hydrocarbon receptor (AhR) (Rattus norvegicus, UniProt P41738); conditions: rodent hepatic cytosol, cited from earlier work
T1 construct: rodent hepatic cytosol as a source of the AhR; from tissue; host or cells: rodent hepatic cytosol
T1 sequence (P41738 10-853): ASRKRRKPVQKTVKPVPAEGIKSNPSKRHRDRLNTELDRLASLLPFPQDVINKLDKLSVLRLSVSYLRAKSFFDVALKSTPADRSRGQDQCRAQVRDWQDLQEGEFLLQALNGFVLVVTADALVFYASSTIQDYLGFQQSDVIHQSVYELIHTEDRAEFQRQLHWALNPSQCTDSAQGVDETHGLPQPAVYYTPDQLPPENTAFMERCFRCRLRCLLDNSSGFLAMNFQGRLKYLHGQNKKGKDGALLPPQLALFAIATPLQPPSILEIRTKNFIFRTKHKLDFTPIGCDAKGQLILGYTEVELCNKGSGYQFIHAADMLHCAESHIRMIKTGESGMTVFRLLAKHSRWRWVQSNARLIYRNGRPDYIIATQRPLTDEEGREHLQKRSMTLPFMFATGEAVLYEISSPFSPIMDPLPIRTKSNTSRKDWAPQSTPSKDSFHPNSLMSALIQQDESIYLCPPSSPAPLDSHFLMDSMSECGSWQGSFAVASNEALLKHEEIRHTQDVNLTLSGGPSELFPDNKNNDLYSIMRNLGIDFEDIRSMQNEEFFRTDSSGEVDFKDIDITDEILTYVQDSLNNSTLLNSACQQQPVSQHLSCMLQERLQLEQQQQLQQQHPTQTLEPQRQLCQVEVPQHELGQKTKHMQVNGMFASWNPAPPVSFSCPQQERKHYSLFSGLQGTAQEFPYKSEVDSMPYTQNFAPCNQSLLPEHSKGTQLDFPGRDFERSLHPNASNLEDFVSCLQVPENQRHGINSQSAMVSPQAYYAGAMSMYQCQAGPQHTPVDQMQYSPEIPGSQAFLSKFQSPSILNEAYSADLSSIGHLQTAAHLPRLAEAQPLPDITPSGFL

estrogen receptor = biological target: T2, estrogen receptor (Rattus norvegicus, UniProt P06211); assay: Competitive ER binding assay with [3H]E2 in rat uterine cytosol (NCTR)
T2 construct: in rat uterine cytosol, which was obtained from ovariectomized uteri of Sprague-Dawley rats; from tissue; host or cells: uterine cytosol of ovariectomized Sprague-Dawley rats
T2 sequence (P06211 1-600): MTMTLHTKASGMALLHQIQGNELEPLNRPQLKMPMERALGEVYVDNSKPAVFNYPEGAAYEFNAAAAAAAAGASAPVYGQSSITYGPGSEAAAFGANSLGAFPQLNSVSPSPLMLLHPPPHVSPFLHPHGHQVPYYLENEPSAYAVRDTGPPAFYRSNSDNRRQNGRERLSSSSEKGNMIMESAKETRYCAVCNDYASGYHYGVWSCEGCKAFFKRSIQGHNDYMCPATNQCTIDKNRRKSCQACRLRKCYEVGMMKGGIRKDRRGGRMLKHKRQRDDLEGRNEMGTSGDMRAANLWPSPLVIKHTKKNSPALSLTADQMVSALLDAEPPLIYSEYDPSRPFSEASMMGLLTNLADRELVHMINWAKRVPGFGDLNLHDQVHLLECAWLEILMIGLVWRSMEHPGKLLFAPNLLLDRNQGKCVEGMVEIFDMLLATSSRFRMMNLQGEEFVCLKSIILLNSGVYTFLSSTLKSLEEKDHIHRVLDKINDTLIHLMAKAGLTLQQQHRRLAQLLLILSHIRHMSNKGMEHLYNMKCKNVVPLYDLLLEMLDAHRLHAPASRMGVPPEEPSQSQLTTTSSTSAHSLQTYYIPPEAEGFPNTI
Excerpt: The log relative binding activity (RBA) data for these 130 structurally diverse compounds was used to train the CoSCoSA models. The data was produced at NCTR using a competitive ER binding assay with radiolabeled estradiol ([^3H]E2) in rat uterine cytosol, which was obtained from ovariectomized uteri of Sprague-Dawley rats. […] For each of the 130 compounds, the ^13C 2D ^13C—^13C COSY NMR experiment was simulated using the ACD Labs CNMR version 5.0 2D predictor software. The COSY NMR spectra could be saved as two tables per compound.

[2] = log scale, competitive binding, [3H]-2,3,7,8-tetrachlorodioxin, previously reported training data
[3] = previously reported competitive in vitro AhR binding, [3H]-2,3,7,8-tetrachlorodioxin radioligand, values are log EC50
[4] = relative binding affinity vs 17-β-estradiol (RBA 100), rat uterine cytosol, 130 compound training set

Compound | Experimental Log EC50 [1, 2] | Experimental Log EC50 [1, 3] | Exp. Log(RBA) (estrogen receptor; [4]) | Exp. Log(RBA) (estrogen receptor)
Clc1cc2c(cc1Cl)Oc1c(Cl)c(Cl)c(Cl)c(Cl)c1O2 [1,2,3,4,7,8-hexaCl-dibenzodioxin] | −7.55 | −7.55 |  | 
Clc1cc2oc3c(Cl)c(Cl)c(Cl)c(Cl)c3c2cc1Cl [1,2,3,4,7,8-hexaCl-dibenzofuran] | −7.64 | −7.64 |  | 
Clc1ccc2c(c1)Oc1c(Cl)c(Cl)c(Cl)c(Cl)c1O2 [1,2,3,4,7-pentaCl-dibenzodioxin] | −6.19 | −6.19 |  | 
Clc1c(Cl)c(Cl)c2c(c1Cl)Oc1ccccc1O2 [1,2,3,4-tetraCldibenzodioxin] | −6.88 | −6.88 |  | 
Clc1cc2c(oc3cc(Cl)c(Cl)c(Cl)c32)c(Cl)c1Cl [1,2,3,6,7,8-hexaCl-dibenzofuran] | −7.57 | −7.57 |  | 
Clc1cc2oc3c(Cl)cccc3c2c(Cl)c1Cl [1,2,3,6-tetraCl-dibenzofuran] | −7.46 | −7.46 |  | 
Clc1cc2c(cc1Cl)Oc1c(cc(Cl)c(Cl)c1Cl)O2 [1,2,3,7,8-pentaCl-dibenzodioxin] | −8.10 | −8.10 |  | 
Clc1cc2oc3cc(Cl)c(Cl)c(Cl)c3c2cc1Cl [1,2,3,7,8-pentaCl-dibenzofuran] | −8.12 | −8.12 |  | 
Clc1cc(Cl)c2c(c1)oc1cc(Cl)c(Cl)c(Cl)c12 [1,2,3,7,9-pentaCl-dibenzofuran] | −7.40 | −7.40 |  | 
Clc1ccc2c(c1)oc1cc(Cl)c(Cl)c(Cl)c12 [1,2,3,7-tetraCl-dibenzofuran] | −7.96 | −7.96 |  | 
Clc1cc2c(oc3c(Cl)cc(Cl)c(Cl)c32)c(Cl)c1Cl [1,2,4,6,7,8-hexaCl-dibenzofuran] | −6.08 | −6.08 |  | 
Clc1cc2c(cc1Cl)Oc1c(Cl)c(Cl)cc(Cl)c1O2 [1,2,4,7,8-pentaCl-dibenzodioxin] | −6.96 | −6.96 |  | 
Clc1cc(Cl)c2c(c1)oc1c(Cl)cc(Cl)c(Cl)c12 [1,2,4,7,9-pentaCl-dibenzofuran] | −5.70 | −5.70 |  | 
Clc1ccc2oc3c(Cl)cc(Cl)c(Cl)c3c2c1 [1,2,4,8-tetraCl-dibenzofuran] | −6.00 | −6.00 |  | 
Clc1cc(Cl)c2c(c1Cl)Oc1ccccc1O2 [1,2,4-triCl-dibenzodioxin] | −5.88 | −5.88 |  | 
Clc1cc2oc3c(Cl)c(Cl)cc(Cl)c3c2cc1Cl [1,3,4,7,8-pentaCl-dibenzofuran] | −7.70 | −7.70 |  | 
Clc1cc(Cl)c2c(c1)Oc1cc(Cl)c(Cl)cc1O2 [1,3,7,8-tetraCl-dibenzodioxin] | −7.10 | −7.10 |  | 
Clc1cccc2c1Oc1ccccc1O2 [1-Cl-dibenzodioxin] | −5.00 | −5.00 |  | 
Clc1ccc(-c2cc(Cl)c(Cl)c(Cl)c2Cl)cc1Cl [2,3,3′,4,4′,5-hexaCl-biphenyl] | −6.30 | −6.30 |  | 
Clc1ccc(-c2ccc(Cl)c(Cl)c2Cl)cc1Cl [2,3,3′,4,4′-pentaCl-biphenyl] | −6.15 | −6.15 |  | 
Clc1ccc(-c2cc(Cl)c(Cl)c(Cl)c2Cl)cc1 [2,3,4,4′,5-pentaCl-biphenyl] | −6.38 | −6.38 |  | 
Clc1ccc(-c2ccc(Cl)c(Cl)c2Cl)cc1 [2,3,4,4′-tetraCl-biphenyl] | −5.55 | −5.55 |  | 
Clc1cc(-c2ccccc2)c(Cl)c(Cl)c1Cl [2,3,4,5-tetraCl-biphenyl] | −4.85 | −4.85 |  | 
Clc1cc2c(oc3c(Cl)c(Cl)c(Cl)cc32)c(Cl)c1Cl [2,3,4,6,7,8-hexaCl-dibenzofuran] | −8.33 | −8.33 |  | 

Compound | Experimental Log EC50 [1, 2] | Experimental Log EC50 [1, 3] | Exp. Log(RBA) (estrogen receptor; [4]) | Exp. Log(RBA) (estrogen receptor)
Clc1cc2c(oc3c(Cl)cccc32)c(Cl)c1Cl [2,3,4,6-tetraCl-dibenzofuran] | −7.46 | −7.46 |  | 
Clc1cc2oc3c(Cl)c(Cl)c(Cl)cc3c2cc1Cl [2,3,4,7,8-pentaCl-dibenzofuran] | −8.82 | −8.82 |  | 
Clc1cc(Cl)c2c(c1)oc1c(Cl)c(Cl)c(Cl)cc12 [2,3,4,7,9-pentaCl-dibenzofuran] | −7.70 | −7.70 |  | 
Clc1cc2c(cc1Cl)Oc1c(ccc(Cl)c1Cl)O2 [2,3,6,7-tetraCl-dibenzodioxin] | −7.79 | −7.79 |  | 
Clc1cc(Cl)c2oc3cc(Cl)c(Cl)cc3c2c1 [2,3,6,8-tetraCldibenzofuran] | −7.66 | −7.66 |  | 
Clc1cc2c(cc1Cl)Oc1c(Cl)cccc1O2 [2,3,6-triCl-dibenzodioxin] | −7.66 | −7.66 |  | 
O=c1c(O)c(-c2ccc(O)cc2O)oc2cc(O)cc(O)c12 [morin] |  |  | −3.35 | 
C#C[C@]1(O)CC[C@H]2[C@@H]3CCc4cc(O)ccc4[C@H]3[C@@H](OC)C[C@@]21C [moxestrol] |  |  |  | 1.14
O=c1c(O)c(-c2cc(O)c(O)c(O)c2)oc2cc(O)cc(O)c12 [myricetin] |  |  |  | −2.75
O=C1C[C@@H](c2ccc(O)cc2)Oc2cc(O)cc(O)c21 [naringenin] |  |  |  | −2.13
CC(Cc1ccc(O)c(O)c1)C(C)Cc1ccc(O)c(O)c1 (stereo not drawn) [nordihydroguariareticacid] |  |  | −1.51 | 
Clc1ccc(C(c2ccccc2Cl)C(Cl)(Cl)Cl)cc1 (stereo not drawn) [o,p′,-DDT] |  |  | −2.85 | 
Oc1ccc(-c2ccccc2)cc1 [p-phenylphenol] |  |  |  | −3.04
O=C(O)c1ccccc1C(c1ccc(O)cc1)c1ccc(O)cc1 [phenolphthalin] |  |  | −3.67 | 
O=C(CCc1ccc(O)cc1)c1c(O)cc(O)cc1O [phloretin] |  |  |  | −1.16
CCCOC(=O)c1ccc(O)cc1 [propyl-4-hydroxybenzoate] |  |  |  | −3.22
COc1cc(O)c2c(=O)c(-c3ccc(O)cc3)coc2c1 [prunetin] |  |  |  | −2.74
C(=C(c1ccccc1)c1ccccc1)c1ccccc1 [triphenylethylene] |  |  | −2.78 | 
C[C@H]1CCCC(=O)CCCCCc2cc(O)cc(O)c2C(=O)O1 [zearalanone] |  |  |  | 0.32
CCC(c1ccc2cc(O)ccc2c1)C(C)(C)C(=O)O (stereo not drawn) [α,α-dimethylbethyl allenolic acid] |  |  | −0.02 | 
C[C@H]1CCC[C@H](O)CCCCCc2cc(O)cc(O)c2C(=O)O1 [α-zearalanol] |  |  | 1.48 | 
C[C@H]1CCC[C@H](O)CCC/C=C/c2cc(O)cc(O)c2C(=O)O1 [α-zearalenol] |  |  | 1.63 | 
C[C@H]1CCC[C@@H](O)CCCCCc2cc(O)cc(O)c2C(=O)O1 [β-zearalanol] |  |  | −0.19 | 
C[C@H]1CCC[C@@H](O)CCC/C=C/c2cc(O)cc(O)c2C(=O)O1 [β-zearalenol] |  |  | −0.69 | 
